From BindingDB's records for doi:10.1016/j.ejmech.2020.112223 (2020) come the findings set out here.

pIC50: −log10 of the molar value.

The nature of the test: Inhibition of Influenza A virus (A/PR 8/34 (H1N1)) hemagglutinin transfected in human HeLa cells assessed as reduction in low pH-indued polykaryon formation preincubated for 15 mins followed by pH 5.2 buffer addition and measured after 5 mins by giemsa staining based microscopic analysis.

The pIC50 is the negative decadic logarithm of the IC50, by convention in mol/L.

For `COC(=O)C[C@H](NC(=O)OC(C)(C)C)C(=O)N(Cc1ccc(F)cc1)C1(C(=O)NCc2ccccc2)CCN(Cc2ccccc2)CC1`, the pIC50 was 4.92.
